# Test results from patent US20140274984A1, “ACID ADDITION SALTS OF 5ALPHA-HYDROXY-6BETA-[2-(1H-IMIDAZOL-4-YL)ETHYLAMINO]CHOLESTAN-3BETA-OL” (INSERM (INSTITUT NATIONAL DE LA SANTÉ ET DE LA RECHERE …, priority 2011, published 2014).
# Assay: Water solubility at room temperature (shake 5 hours, filtered supernatant, HPLC with calibration curve)
# Type: physicochemical
# Conditions: shaken 5 hours
# Experimental: An adequate amount of each sample was taken. Water (50% v/v) was added to each sample, and the mixture was shaken at room temperature for 5 hours. The supernatant was filtered through a filter, and diluted with a mixed solution of water 0.1% TFA/acetonitrile as necessary to give a sample solution. The concentration (mg/ml) of the sample solution was measured by high performance liquid chromatography (HPLC) with a calibration curve method, and taken as the solubility in water at room temperature.
# HPLC Analysis Conditions:
# HPLC purifications and analyses were carried out using an LC200 series Perkin Elmer apparatus, and diode array UV detector, using an Ultrasep C18 RP 100 column from Bischoff Chromatography.
row,Substance,Solubility in water at room temperature
1,"5alpha-Hydroxy-6beta-[2-(1H-imidazol-4-yl)ethylamino]cholestan-3beta-ol, acetate [Example 14]",4500 µg/mL
2,"5alpha-Hydroxy-6beta-[2-(1H-imidazol-4-yl)ethylamino]cholestan-3beta-ol, mesylate [Example 13]",11000 µg/mL
3,"5alpha-Hydroxy-6beta-[2-(1H-imidazol-4-yl)ethylamino]cholestan-3beta-ol, pamoate [Example 7]",1400 µg/mL
